Measured values taken from ChEMBL document CHEMBL1135082, “Benzylidene rhodanines as novel inhibitors of UDP-N-acetylmuramate/L-alanine ligase” (Bioorg Med Chem Lett, 2002).
Values after ≈ are worked out from the molar mass of the structure shown.

Assays:
Escherichia coli = assay: The whole cell inhibitory activity was evaluated against the Gram-negative Escherichia coli; Not active; type: functional
Staphylococcus aureus = assay: The whole cell inhibitory activity was evaluated against Gram-positive methicillin-resistant Staphylococcus aureus (MRSA); type: functional
[1] = Inhibitory concentration against recombinant UDP-N-Acetylmuramate/L-Alanine Ligase (MurC) enzyme
CHO [2] = assay: Cytotoxic effect at mammalian Chinese hamster ovary (CHO) cells; type: functional, cell-based; settings: Cricetulus griseus
CHO [3] = assay: Cytotoxic effect at mammalian Chinese hamster ovary (CHO) cells; Toxic; type: functional, cell-based; settings: Cricetulus griseus

Compound: O=C1NC(=S)S/C1=C\c1cc([N+](=O)[O-])ccc1Oc1ccc(Cl)cc1
- MIC (Escherichia coli): > 76 µM
- MIC (Staphylococcus aureus): > 76 µM
- IC50 [1]: 24 µM

Compound: O=C1NC(=S)S/C1=C\c1ccc(/C=C/c2ccccc2)cc1
- MIC (Escherichia coli): > 93 µM
- MIC (Staphylococcus aureus): > 93 µM
- IC50 [1]: 18 µM

Compound: O=C1NC(=S)S/C1=C\c1cccc(Oc2ccccc2)c1
- IC50 (CHO [2]): > 96 µM
- MIC (Escherichia coli): > 87 µM
- MIC (Staphylococcus aureus): 79 µM (≈ 24.8 µg/mL)
- IC50 [1]: 22 µM

Compound: O=C1NC(=S)S/C1=C/c1cc([N+](=O)[O-])ccc1SCc1ccc(Cl)cc1
- IC50 (CHO [3]): 29 µM
- MIC (Escherichia coli): > 65 µM
- MIC (Staphylococcus aureus): 31 µM (≈ 13.1 µg/mL)
- IC50 [1]: 27 µM

Compound: O=C1NC(=S)S/C1=C\c1cc(OCc2ccccc2)cc(OCc2ccccc2)c1
- MIC (Escherichia coli): > 69 µM
- MIC (Staphylococcus aureus): > 69 µM
- IC50 [1]: 12 µM

Compound: O=C1NC(=S)S/C1=C\c1cc([N+](=O)[O-])ccc1Sc1ccc(Cl)cc1
- IC50 (CHO [2]): > 73 µM
- MIC (Escherichia coli): > 87 µM
- MIC (Staphylococcus aureus): 70 µM (≈ 28.6 µg/mL)
- IC50 [1]: 24 µM
